From patent US20150087586A1, “PEGYLATED C-PEPTIDE” (Cebix, Inc., priority 2012, published 2015) come the findings set out here.

The nature of this data set: Pharmacokinetic study of unmodified C-peptide in beagle dogs, single S.C. dose, plasma ELISA. The data set is classed as in vivo. As to conditions: single S.C. dose 0.5 mg/kg. As to the method: A pharmacokinetic (PK) study was conducted to determine the C-peptide PK profile with unmodified C-peptide in beagle dogs.
Two male and one female dog received S.C. the unmodified synthetic human C-peptide (0.5 mg/kg; 0.025 mL/kg) formulated in phosphate buffered saline (20 mg/mL). Dogs were bled by venipuncture and blood samples were collected at predetermined time points over 14 days. Plasma samples were obtained after centrifugation of the blood (3,000 rpm for 10 minutes) and stored at −80° C. until analysis. A CRO with Good Laboratory Practice (GLP) capabilities (MicroConstants, Inc.; San Diego, Calif.) performed the bioanalytical work. […] Results were expressed as C-peptide concentrations. For the PK analysis, the below quantitation level (BQL) was treated as zero and nominal time points were used for all calculations. PK parameters were determined by standard model independent methods based on the individual plasma concentration-time data for each animal using model 200 in WinNonlin Professional 5.2.1 (Pharsight Corp., Mountain View, Calif.).
(In an ELISA, binding on a coated surface is turned into a signal by an enzyme label.)

The structures appear in SMILES notation.

In the case of `CC(C)C[C@H](NC(=O)[C@H](C)NC(=O)[C@H](CC(C)C)NC(=O)[C@@H]1CCCN1C(=O)[C@H](CCC(N)=O)NC(=O)[C@H](CC(C)C)NC(=O)[C@H](CO)NC(=O)CNC(=O)[C@H](C)NC(=O)CNC(=O)[C@@H]1CCCN1C(=O)CNC(=O)CNC(=O)CNC(=O)[C@H](CC(C)C)NC(=O)[C@H](CCC(=O)O)NC(=O)[C@@H](NC(=O)[C@H](CCC(N)=O)NC(=O)CNC(=O)[C@@H](NC(=O)[C@H](CCC(N)=O)NC(=O)[C@H](CC(C)C)NC(=O)[C@H](CC(=O)O)NC(=O)[C@H](CCC(=O)O)NC(=O)[C@H](C)NC(=O)[C@@H](N)CCC(=O)O)C(C)C)C(C)C)C(=O)N[C@@H](CCC(=O)O)C(=O)NCC(=O)N[C@@H](CO)C(=O)N[C@@H](CC(C)C)C(=O)N[C@@H](CCC(N)=O)C(=O)O` [CP-AQ], under “14 days observation”, the “tolerability (clinical abnormalities)” value is on record as “well tolerated”. Moreover, for the setting “plasma”, the “time until circulating levels of C-peptide were below quantitation level (BQL)” value is “BQL within half a day”.
